According to article PMC9487510, “A Novel Oral GyrB/ParE Dual Binding Inhibitor Effective against Multidrug-Resistant Neisseria gonorrhoeae and Other High-Threat Pathogens” (Antimicrobial Agents and Chemotherapy, 2022):
≈ marks a conversion by molar mass, not a printed value. Read-outs that look alike come from different tables or passages of the source.

System: N. gonorrhoeae clinical isolates
Test: MIC, agar dilution (CLSI)
Format: cell-based, Neisseria gonorrhoeae
Settings: Neisseria gonorrhoeae

CC[C@H]1OC(=O)[C@H](C)[C@@H](O[C@H]2C[C@@](C)(OC)[C@@H](O)[C@H](C)O2)[C@H](C)[C@@H](O[C@@H]2O[C@H](C)C[C@H](N(C)C)[C@H]2O)[C@](C)(O)C[C@@H](C)CN(C)[C@H](C)[C@@H](O)[C@]1(C)O [Azi, azithromycin]
MIC50: 0.125 µg/mL (≈ 0.167 µM) | MIC (strain CDC1 (GCREF2012 016), read-out: MIC): 0.25 µg/mL (≈ 0.334 µM) | MIC (strain CDC2 (GCREF2012 045), read-out: MIC): 0.5 µg/mL (≈ 0.668 µM) | MIC (strain CDC3 (GCREF2013 013)): 0.125 µg/mL (≈ 0.167 µM) | MIC (strain CDC4 (GCREF2013 030)): 0.125 µg/mL (≈ 0.167 µM) | MIC (strain CDC5 (GCREF2012 001), read-out: MIC): 0.5 µg/mL (≈ 0.668 µM) | MIC (strain CDC6 (GCREF2012 002), read-out: MIC): 0.5 µg/mL (≈ 0.668 µM) | MIC (strain CDC8 (GCREF2012 004)): 0.125 µg/mL (≈ 0.167 µM) | MIC (strain CDC9 (GCREF2012 005)): 0.125 µg/mL (≈ 0.167 µM) | MIC (strain CDC10 (GCREF2012 006), read-out: MIC): 0.5 µg/mL (≈ 0.668 µM) | MIC (strain CDC11 (GCREF2012 007), read-out: MIC): 0.25 µg/mL (≈ 0.334 µM) | MIC (strain CDC12 (GCREF2012 008)): 0.125 µg/mL (≈ 0.167 µM) | MIC (strain CDC13 (GCREF2012 009)): 0.125 µg/mL (≈ 0.167 µM) | MIC (strain CDC14 (GCREF2012 010)): 0.125 µg/mL (≈ 0.167 µM) | MIC (strain CDC15 (GCREF2012 011), read-out: MIC): 4 µg/mL (≈ 5.34 µM) | MIC (strain CDC16 (GCREF2012 012), read-out: MIC): 0.25 µg/mL (≈ 0.334 µM) | MIC (strain CDC18 (GCREF2012 014), read-out: MIC): 0.5 µg/mL (≈ 0.668 µM) | MIC (strain CDC19 (GCREF2012 015), read-out: MIC): 8 µg/mL (≈ 10.7 µM) | MIC (strain CDC20 (GCREF2012 017), read-out: MIC): > 16 µg/mL | MIC (strain CDC21 (GCREF2012 018)): 0.125 µg/mL (≈ 0.167 µM) | MIC (strain CDC22 (GCREF2012 019), read-out: MIC): 0.5 µg/mL (≈ 0.668 µM) | MIC (strain CDC23 (GCREF2012 020)): 0.125 µg/mL (≈ 0.167 µM) | MIC (strain CDC24 (GCREF2012 021), read-out: MIC): 0.25 µg/mL (≈ 0.334 µM) | MIC (strain CDC25 (GCREF2012 022)): 0.125 µg/mL (≈ 0.167 µM) | MIC (strain CDC26 (GCREF2012 023), read-out: MIC): 0.5 µg/mL (≈ 0.668 µM) | MIC (strain CDC27 (GCREF2012 024), read-out: MIC): 0.25 µg/mL (≈ 0.334 µM) | MIC (strain CDC28 (GCREF2012 025), read-out: MIC): 0.25 µg/mL (≈ 0.334 µM) | MIC (strain CDC29 (GCREF2012 026), read-out: MIC): 0.5 µg/mL (≈ 0.668 µM) | MIC (strain CDC30 (GCREF2012 027), read-out: MIC): 0.25 µg/mL (≈ 0.334 µM) | MIC (strain CDC31 (GCREF2012 028), read-out: MIC): 0.5 µg/mL (≈ 0.668 µM) | MIC (strain CDC32 (GCREF2012 029)): 0.125 µg/mL (≈ 0.167 µM) | MIC (strain CDC33 (GCREF2012 030)): 0.125 µg/mL (≈ 0.167 µM) | MIC (strain CDC34 (GCREF2012 031)): 0.125 µg/mL (≈ 0.167 µM) | MIC (strain CDC35 (GCREF2012 032), read-out: MIC): 0.25 µg/mL (≈ 0.334 µM) | MIC (strain CDC36 (GCREF2012 033), read-out: MIC): 4 µg/mL (≈ 5.34 µM) | MIC (strain CDC37 (GCREF2012 034), read-out: MIC): 0.25 µg/mL (≈ 0.334 µM) | MIC (strain CDC38 (GCREF2012 035), read-out: MIC): 0.25 µg/mL (≈ 0.334 µM) | MIC (strain CDC39 (GCREF2012 036), read-out: MIC): 0.25 µg/mL (≈ 0.334 µM) | MIC (strain CDC40 (GCREF2012 037), read-out: MIC): 0.25 µg/mL (≈ 0.334 µM) | MIC (strain CDC41 (GCREF2012 038), read-out: MIC): 0.25 µg/mL (≈ 0.334 µM) | MIC (strain CDC42 (GCREF2012 039), read-out: MIC): 0.25 µg/mL (≈ 0.334 µM) | MIC (strain CDC43 (GCREF2012 040), read-out: MIC): 0.25 µg/mL (≈ 0.334 µM) | MIC (strain CDC45 (GCREF2012 042), read-out: MIC): 0.5 µg/mL (≈ 0.668 µM) | MIC (strain CDC46 (GCREF2012 043)): 0.125 µg/mL (≈ 0.167 µM) | MIC (strain CDC47 (GCREF2012 044), read-out: MIC): 0.5 µg/mL (≈ 0.668 µM) | MIC (strain CDC48 (GCREF2012 046), read-out: MIC): 0.25 µg/mL (≈ 0.334 µM) | MIC (strain CDC49 (GCREF2012 047), read-out: MIC): 0.5 µg/mL (≈ 0.668 µM) | MIC (strain CDC50 (GCREF2012 048), read-out: MIC): 0.25 µg/mL (≈ 0.334 µM) | MIC (strain CDC51 (GCREF2012 049)): 0.125 µg/mL (≈ 0.167 µM) | MIC (strain CDC52 (GCREF2012 050)): 0.125 µg/mL (≈ 0.167 µM) | MIC (strain CDC53 (GCREF2012 051)): 0.125 µg/mL (≈ 0.167 µM) | MIC (strain CDC54 (GCREF2012 052), read-out: MIC): 0.016 µg/mL (≈ 0.0214 µM) | MIC (strain CDC55 (GCREF2013 001)): 0.125 µg/mL (≈ 0.167 µM) | MIC (strain CDC56 (GCREF2013 002)): 0.125 µg/mL (≈ 0.167 µM) | MIC (strain CDC57 (GCREF2013 003)): 0.125 µg/mL (≈ 0.167 µM) | MIC (strain CDC58 (GCREF2013 004)): 0.125 µg/mL (≈ 0.167 µM) | MIC (strain CDC59 (GCREF2013 044)): 0.125 µg/mL (≈ 0.167 µM) | MIC (strain CDC60 (GCREF2013 005)): 0.125 µg/mL (≈ 0.167 µM) | MIC (strain CDC61 (GCREF2013 006), read-out: MIC): 0.25 µg/mL (≈ 0.334 µM) | MIC (strain CDC62 (GCREF2013 007)): 0.125 µg/mL (≈ 0.167 µM) | MIC (strain CDC63 (GCREF2013 008), read-out: MIC): 0.016 µg/mL (≈ 0.0214 µM) | MIC (strain CDC64 (GCREF2013 009)): 0.125 µg/mL (≈ 0.167 µM) | MIC (strain CDC65 (GCREF2013 010)): 0.125 µg/mL (≈ 0.167 µM) | MIC (strain CDC66 (GCREF2013 011), read-out: MIC): 4 µg/mL (≈ 5.34 µM) | MIC (strain CDC67 (GCREF2013 014)): 0.125 µg/mL (≈ 0.167 µM) | MIC (strain CDC68 (GCREF2013 016)): 0.125 µg/mL (≈ 0.167 µM) | MIC (strain CDC69 (GCREF2013 017)): 0.125 µg/mL (≈ 0.167 µM) | MIC (strain CDC70 (GCREF2013 018), read-out: MIC): 4 µg/mL (≈ 5.34 µM) | MIC (strain CDC71 (GCREF2013 019)): 0.125 µg/mL (≈ 0.167 µM) | MIC (strain CDC72 (GCREF2013 020)): 0.125 µg/mL (≈ 0.167 µM) | MIC (strain CDC73 (GCREF2013 021)): 0.125 µg/mL (≈ 0.167 µM) | MIC (strain CDC74 (GCREF2013 022)): 0.125 µg/mL (≈ 0.167 µM) | MIC (strain CDC75 (GCREF2013 023), read-out: MIC): 0.5 µg/mL (≈ 0.668 µM) | MIC (strain CDC76 (GCREF2013 024)): 0.125 µg/mL (≈ 0.167 µM) | MIC (strain CDC77 (GCREF2013 025), read-out: MIC): 4 µg/mL (≈ 5.34 µM) | MIC (strain CDC78 (GCREF2013 026), read-out: MIC): 0.031 µg/mL (≈ 0.0414 µM) | MIC (strain CDC79 (GCREF2013 027)): 0.125 µg/mL (≈ 0.167 µM) | MIC (strain CDC80 (GCREF2013 028), read-out: MIC): 8 µg/mL (≈ 10.7 µM) | MIC (strain CDC81 (GCREF2013 029)): 0.125 µg/mL (≈ 0.167 µM) | MIC (strain CDC82 (GCREF2013 031), read-out: MIC): 2 µg/mL (≈ 2.67 µM) | MIC (strain CDC83 (GCREF2013 032)): 0.125 µg/mL (≈ 0.167 µM) | MIC (strain CDC84 (GCREF2013 033)): 0.125 µg/mL (≈ 0.167 µM) | MIC (strain CDC86 (GCREF2013 035)): 0.125 µg/mL (≈ 0.167 µM) | MIC (strain CDC87 (GCREF2013 036)): 0.125 µg/mL (≈ 0.167 µM) | MIC (strain CDC88 (GCREF2013 037), read-out: MIC): 2 µg/mL (≈ 2.67 µM) | MIC (strain CDC89 (GCREF2013 038), read-out: MIC): 2 µg/mL (≈ 2.67 µM) | MIC (strain CDC90 (GCREF2013 039)): 0.125 µg/mL (≈ 0.167 µM) | MIC (strain CDC91 (GCREF2013 040)): 0.125 µg/mL (≈ 0.167 µM) | MIC (strain CDC92 (GCREF2013 041)): 0.125 µg/mL (≈ 0.167 µM) | MIC (strain CDC93 (GCREF2013 042)): 0.125 µg/mL (≈ 0.167 µM) | MIC (strain CDC94 (GCREF2013 043), read-out: MIC): 2 µg/mL (≈ 2.67 µM) | MIC (strain CDC95 (GCREF2013 045)): 0.125 µg/mL (≈ 0.167 µM) | MIC (strain CDC96 (GCREF2013 046)): 0.125 µg/mL (≈ 0.167 µM) | MIC (strain CDC97 (GCREF2013 047)): 0.125 µg/mL (≈ 0.167 µM) | MIC (strain CDC98 (GCREF2013 048), read-out: MIC): 2 µg/mL (≈ 2.67 µM) | MIC (strain CDC99 (GCREF2013 012), read-out: MIC): 4 µg/mL (≈ 5.34 µM) | MIC (strain CDC100 (GCREF2013 015)): 0.125 µg/mL (≈ 0.167 µM) | MIC90 (96 clinical isolates, read-out: MIC90): 2 µg/mL (≈ 2.67 µM)
